System: macrophages
Experiment: IL8 secretion by macrophages incubated with serotonin receptor agonists (bead-based immunoassay)
Format: cell-based
Conditions: human monocyte-derived macrophages (M-CSF)
Protocol: CD14+ monocytes were isolated from human PBMCs using negative magnetic bead selection (Stemcell Technologies) on day 0. Cells were cultured with M-CSF to differentiate monocytes to macrophages. On day 6, cells were treated with LP44 (high affinity 5-HT7 agonist), BW 723C86 hydrochloride (5-HT2B agonist), MK 212 hydrochloride (5-HT2C agonist) (Sigma-Aldrich), at concentrations 1 μM and 10 μM overnight. Supernatant was collected and bead-based immunoassays (Biolegend) were performed to detect changes in cytokine secretion.
Across multiple human donors, secretion of the inflammatory cytokine, IL8, by macrophages was decreased after addition of each of the HTR2B, HTR2C, and HTR7 agonists, as show in Table 18 below.

SMILES | Fold change of IL-8 (Normalized to Macs + LPS with no compound treatment) (1 μM overnight) | Fold change of IL-8 (Normalized to Macs + LPS with no compound treatment) (10 μM overnight)
CC(N)Cc1c[nH]c2ccc(OCc3cccs3)cc12.Cl (stereo not drawn) [BW723086] | 0.670 | 0.508
CSc1ccccc1N1CCN(CCCCCC(=O)NC2CCCc3ccccc32)CC1 (stereo not drawn) [LP44] | 0.340 | 0.427
Clc1cncc(N2CCNCC2)n1 [MK212] | 0.502 | 0.484

From patent US11034751B1, “Methods and compositions for treating cancer using serotonin receptor inhibitors” (Flagship Pioneering Innovations V, Inc., priority 2018, dated 2021)
